Source: patent US20090274636A1, “TOOTH ENAMEL DISSOLUTION INHIBITOR” (priority 2006, published 2009)

Experiment: Phosphorus dissolution from sintered hydroxyapatite (tooth enamel model) in 2 wt. % citric acid, ICP-AES
Conditions: for Phosphorus Dissolution Rate (%): 2 wt. % citric acid, pH 2.5, shaken two days, negative control = 100%
Procedure: In order to evaluate the inhibitory activity of subject substances on the dissolution (decalcification) of tooth enamel, the following tests were conducted using sintered hydroxyapatite as a tooth enamel model.
Thus, 10 ml of test solution was prepared. The test solution (10 ml) and a piece (720 mg, 10×10×2 mm) of sintered hydroxyapatite (APP-100; PENTAX Corp.) were put into a 15-ml polypropylene tube and the tube was sealed. The tube was shaken horizontally at about 120 times per minute for two days. After the shaking, the amount of phosphorus dissolved from the sintered hydroxyapatite was measured in each test solution by high-frequency inductively coupled plasma atomic emission spectrophotometry (ICP-AES). Another test was conducted as a negative control in the same manner as above, using a 2 wt. % citric acid solution (adjusted to pH 2.5 with sodium hydrate) as a test solution. Still another test was conducted as a positive control in the same manner as above, using CaCl2 (10 mM) as a subject substance. Taking the amount of phosphorus dissolved in the negative control as 100%, the phosphorus dissolution rate (%) was calculated for each subject substance.

Row | Structure (SMILES) | Phosphorus Dissolution Rate (%) (subject substance 10 mM) | Phosphorus Dissolution Rate (%) (subject substance 0.2 wt. %) | Phosphorus Dissolution Rate (%) (subject substance 0.5 wt. %) | inhibitory effect on phosphorus dissolution from the sintered hydroxyapatite due to citric acid (in words) (summary of Table 1 results)
1 | [Ca+2].[Cl-].[Cl-] [CaCl2, reference compound] | 75.0% |  |  | 
2 | OC[C@H]1O[C@@H]2O[C@H]3[C@H](O)[C@@H](O)[C@@H](O[C@H]4[C@H](O)[C@@H](O)[C@@H](O[C@H]5[C@H](O)[C@@H](O)[C@@H](O[C@H]6[C@H](O)[C@@H](O)[C@@H](O[C@H]7[C@H](O)[C@@H](O)[C@@H](O[C@H]8[C@H](O)[C@@H](O)[C@@H](O[C@H]1[C@H](O)[C@H]2O)O[C@@H]8CO)O[C@@H]7CO)O[C@@H]6CO)O[C@@H]5CO)O[C@@H]4CO)O[C@@H]3CO [β-cyclodextrin] |  | 98.6% | 79.7% | effectively suppressed phosphorus dissolution
